PubChem BioAssay AID2060894 (Molecular Pharmacology Branch, DTP, NCI, 2025)

System: K12877-001-R-J1-PDC complex spheroid viability
Test: Anticancer human tumor K12877-001-R-J1-PDC patient-derived lung adenocarcinoma cell line growth inhibition [RAS]
Conditions: for IC50: curve of first compound; for viability, T/C: stronger effect = lower value
How it was run: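 Tumour cells grown as complex spheroids with HUVEC endothelial cells and mesenchymal stem cells, treated with RAS pathway inhibitor combinations. Each agent spans half-log steps from near clinical Cmax, or 10 microM where Cmax is unknown.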

[1] = second compound 0.000949 µM, first compound 0.0316 µM
[2] = second compound 0.000949 µM, first compound 0.1 µM
[3] = second compound 0.000949 µM, first compound 0.316 µM
[4] = second compound 0.000949 µM, first compound 1 µM
[5] = second compound 0.000949 µM, first compound 3.16 µM
[6] = second compound 0.000949 µM, first compound 10 µM
[7] = second compound 0.003 µM, first compound 0.0316 µM
[8] = second compound 0.003 µM, first compound 0.1 µM
[9] = second compound 0.003 µM, first compound 0.316 µM
[10] = second compound 0.003 µM, first compound 1 µM
[11] = second compound 0.003 µM, first compound 3.16 µM
[12] = second compound 0.003 µM, first compound 10 µM
[13] = second compound 0.00949 µM, first compound 0.0316 µM
[14] = second compound 0.00949 µM, first compound 0.1 µM
[15] = second compound 0.00949 µM, first compound 0.316 µM
[16] = second compound 0.00949 µM, first compound 1 µM
[17] = second compound 0.00949 µM, first compound 3.16 µM
[18] = second compound 0.00949 µM, first compound 10 µM
[19] = second compound 0.03 µM, first compound 0.0316 µM
[20] = second compound 0.03 µM, first compound 0.1 µM
[21] = second compound 0.03 µM, first compound 0.316 µM
[22] = second compound 0.03 µM, first compound 1 µM
[23] = second compound 0.03 µM, first compound 3.16 µM
[24] = second compound 0.03 µM, first compound 10 µM
[25] = second compound 0.0949 µM, first compound 0.0316 µM
[26] = second compound 0.0949 µM, first compound 0.1 µM
[27] = second compound 0.0949 µM, first compound 0.316 µM
[28] = second compound 0.0949 µM, first compound 1 µM
[29] = second compound 0.0949 µM, first compound 3.16 µM
[30] = second compound 0.0949 µM, first compound 10 µM
[31] = second compound 0.3 µM, first compound 0.0316 µM
[32] = second compound 0.3 µM, first compound 0.1 µM
[33] = second compound 0.3 µM, first compound 0.316 µM
[34] = second compound 0.3 µM, first compound 1 µM
[35] = second compound 0.3 µM, first compound 3.16 µM
[36] = second compound 0.3 µM, first compound 10 µM
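Note: spheroids exposed to agents for one week before readout.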

Compound `CC(=O)OC12COC1CC(O)C1(C)C(=O)C(O)C3=C(C)C(OC(=O)C(O)C(NC(=O)OC(C)(C)C)c4ccccc4)CC(O)(C(OC(=O)c4ccccc4)C21)C3(C)C` (stereo unspecified) + CCn1c(-c2cccnc2C(C)OC)c2c3cc(ccc31)N1CCOC(CC(NC(=O)C(C(C)C)N(C)C(=O)C3(F)CCN(C(=O)C#CC(C)(C)N(C)C)CC3)C(=O)N3CCCC(N3)C(=O)OCC(C)(C)C2)C1 has an IC50 (second compound 0.000949 µM) of under 31.6 nM, an IC50 (second compound 0.003 µM) of under 31.6 nM and an IC50 (second compound 0.00949 µM) of under 31.6 nM. It also gave an IC50 (second compound 0.03 µM) of under 31.6 nM, an IC50 (second compound 0.0949 µM) of under 31.6 nM and an IC50 (second compound 0.3 µM) of under 31.6 nM. It also gave a viability, T/C [1] of 4.23%, a viability, T/C [2] of 2.96% and a viability, T/C [3] of 3.64%. The viability, T/C [4] was 3.51%, the viability, T/C [5] was 3.12% and the viability, T/C [6] was 6.19%. For the same compound, the viability, T/C [7] was 4.57%, the viability, T/C [8] was 3.08% and the viability, T/C [9] was 3.09%. The viability, T/C [10] was 2.71%, the viability, T/C [11] was 3.37% and the viability, T/C [12] was 6.21%. The viability, T/C [13] was 3.31%, the viability, T/C [14] was 2.69% and the viability, T/C [15] was 2.28%. For the same compound, the viability, T/C [16] was 2.12%, the viability, T/C [17] was 2.87% and the viability, T/C [18] was 5.23%. It also gave a viability, T/C [19] of 3.32%, a viability, T/C [20] of 2.79% and a viability, T/C [21] of 2.34%. The viability, T/C [22] was 2.42%, the viability, T/C [23] was 2.51% and the viability, T/C [24] was 5.78%. The viability, T/C [25] was 2.88%, the viability, T/C [26] was 2.42% and the viability, T/C [27] was 2.13%. It also gave a viability, T/C [28] of 2.21%, a viability, T/C [29] of 2.11% and a viability, T/C [30] of 4.05%. The viability, T/C [31] was 3.02%, the viability, T/C [32] was 2.23% and the viability, T/C [33] was 2.13%. The viability, T/C [34] was 1.55%, the viability, T/C [35] was 1.93% and the viability, T/C [36] was 3.39%.

With `NC1c2ccccc2OC12CCN(c1cnc3c(N4CCCc5ncccc54)n[nH]c3n1)CC2` (stereo unspecified) + CCn1c(-c2cccnc2C(C)OC)c2c3cc(ccc31)N1CCOC(CC(NC(=O)C(C(C)C)N(C)C(=O)C3(F)CCN(C(=O)C#CC(C)(C)N(C)C)CC3)C(=O)N3CCCC(N3)C(=O)OCC(C)(C)C2)C1 the IC50 (second compound 0.000949 µM) was 580 nM, the IC50 (second compound 0.003 µM) was 509 nM and the IC50 (second compound 0.00949 µM) was 225 nM. For the same compound, the IC50 (second compound 0.03 µM) was 145 nM, the IC50 (second compound 0.0949 µM) was 136 nM and the IC50 (second compound 0.3 µM) was 67.7 nM. It also gave a viability, T/C [1] of 69%, a viability, T/C [2] of 67.8% and a viability, T/C [3] of 56%. For the same compound, the viability, T/C [4] was 43.8%, the viability, T/C [5] was 38.5% and the viability, T/C [6] was 34%. It also gave a viability, T/C [7] of 65.8%, a viability, T/C [8] of 62.2% and a viability, T/C [9] of 52.5%. The viability, T/C [10] was 45.4%, the viability, T/C [11] was 37% and the viability, T/C [12] was 30%. For the same compound, the viability, T/C [13] was 76.9%, the viability, T/C [14] was 54.1% and the viability, T/C [15] was 49.5%. For the same compound, the viability, T/C [16] was 38.5%, the viability, T/C [17] was 37.6% and the viability, T/C [18] was 28.9%. For the same compound, the viability, T/C [19] was 65.9%, the viability, T/C [20] was 50.9% and the viability, T/C [21] was 44.9%. The viability, T/C [22] was 39.3%, the viability, T/C [23] was 34.5% and the viability, T/C [24] was 30.8%. It also gave a viability, T/C [25] of 62.4%, a viability, T/C [26] of 52.1% and a viability, T/C [27] of 41.8%. For the same compound, the viability, T/C [28] was 38.3%, the viability, T/C [29] was 39.1% and the viability, T/C [30] was 27.4%. It also gave a viability, T/C [31] of 58.3%, a viability, T/C [32] of 46.9% and a viability, T/C [33] of 35%. For the same compound, the viability, T/C [34] was 29.1%, the viability, T/C [35] was 29.8% and the viability, T/C [36] was 22.8%.

With `Nc1ccn(C2OC(CO)C(O)C2(F)F)c(=O)n1` (stereo unspecified) + CCn1c(-c2cccnc2C(C)OC)c2c3cc(ccc31)N1CCOC(CC(NC(=O)C(C(C)C)N(C)C(=O)C3(F)CCN(C(=O)C#CC(C)(C)N(C)C)CC3)C(=O)N3CCCC(N3)C(=O)OCC(C)(C)C2)C1 the IC50 (second compound 0.000949 µM) was 14.5 nM, the IC50 (second compound 0.003 µM) was 13.2 nM and the IC50 (second compound 0.00949 µM) was 12.7 nM. The IC50 (second compound 0.03 µM) was 12.4 nM, the IC50 (second compound 0.0949 µM) was 10.5 nM and the IC50 (second compound 0.3 µM) was 5.89 nM. It also gave a viability, T/C (second compound 0.000949 µM, first compound 0.00316 µM) of 83.5%, a viability, T/C (second compound 0.000949 µM, first compound 0.01 µM) of 71.9% and a viability, T/C [1] of 4.44%. For the same compound, the viability, T/C [2] was 3.87%, the viability, T/C [3] was 3.37% and the viability, T/C [4] was 4.46%. It also gave a viability, T/C (second compound 0.003 µM, first compound 0.00316 µM) of 82.3%, a viability, T/C (second compound 0.003 µM, first compound 0.01 µM) of 64.6% and a viability, T/C [7] of 4.22%. The viability, T/C [8] was 3.94%, the viability, T/C [9] was 5.22% and the viability, T/C [10] was 3.83%. The viability, T/C (second compound 0.00949 µM, first compound 0.00316 µM) was 79.7%, the viability, T/C (second compound 0.00949 µM, first compound 0.01 µM) was 61.6% and the viability, T/C [13] was 5.4%. It also gave a viability, T/C [14] of 4.58%, a viability, T/C [15] of 3.59% and a viability, T/C [16] of 3.51%. It also gave a viability, T/C (second compound 0.03 µM, first compound 0.00316 µM) of 82.2%, a viability, T/C (second compound 0.03 µM, first compound 0.01 µM) of 60.4% and a viability, T/C [19] of 3.17%. For the same compound, the viability, T/C [20] was 4.94%, the viability, T/C [21] was 4.16% and the viability, T/C [22] was 3.02%. For the same compound, the viability, T/C (second compound 0.0949 µM, first compound 0.00316 µM) was 77.2%, the viability, T/C (second compound 0.0949 µM, first compound 0.01 µM) was 52% and the viability, T/C [25] was 5.2%. The viability, T/C [26] was 3.34%, the viability, T/C [27] was 2.8% and the viability, T/C [28] was 3.38%. For the same compound, the viability, T/C (second compound 0.3 µM, first compound 0.00316 µM) was 71.6%, the viability, T/C (second compound 0.3 µM, first compound 0.01 µM) was 31.5% and the viability, T/C [31] was 3.46%. For the same compound, the viability, T/C [32] was 2.66%, the viability, T/C [33] was 3.3% and the viability, T/C [34] was 3.43%.
